Calls of active or inactive are those of the source.
What was measured:
[1] = Luminescence Cell-Based Dose Retest to Confirm Inhibitors of Cancer Stem Cells. [Related pubchem assays (depositor defined):AID2717, AID2721]; format: functional; conditions: Homo sapiens
[2] = molecular target: T1, Neuropeptide Y receptor type 1 (Homo sapiens, UniProt P25929); format: functional;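 further: HEK293 cells with a CNG channel challenged with NPY then isoproterenol; potency as antagonist that reverses NPY suppression of cAMP signal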
T1 sequence (P25929 whole entry): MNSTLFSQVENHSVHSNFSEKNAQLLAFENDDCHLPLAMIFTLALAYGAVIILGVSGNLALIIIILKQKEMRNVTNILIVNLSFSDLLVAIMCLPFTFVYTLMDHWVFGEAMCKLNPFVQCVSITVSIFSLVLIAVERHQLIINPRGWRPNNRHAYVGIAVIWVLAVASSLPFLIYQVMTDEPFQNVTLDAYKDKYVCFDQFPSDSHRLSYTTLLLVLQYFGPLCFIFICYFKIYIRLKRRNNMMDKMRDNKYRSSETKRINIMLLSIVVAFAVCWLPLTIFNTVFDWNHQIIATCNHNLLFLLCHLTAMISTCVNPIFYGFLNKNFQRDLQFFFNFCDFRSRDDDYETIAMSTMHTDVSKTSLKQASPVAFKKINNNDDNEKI

[3] = molecular target: T2, Neuropeptide Y receptor type 2 (Homo sapiens, UniProt P49146); format: functional, cell-based;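 further: HEK293 cells expressing the receptor and a CNG channel; stimulus was NPY near EC95 followed by isoproterenol to raise cAMP; antagonist potency measured as restoring cAMP signal that NPY suppresses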
T2 sequence (P49146 whole entry): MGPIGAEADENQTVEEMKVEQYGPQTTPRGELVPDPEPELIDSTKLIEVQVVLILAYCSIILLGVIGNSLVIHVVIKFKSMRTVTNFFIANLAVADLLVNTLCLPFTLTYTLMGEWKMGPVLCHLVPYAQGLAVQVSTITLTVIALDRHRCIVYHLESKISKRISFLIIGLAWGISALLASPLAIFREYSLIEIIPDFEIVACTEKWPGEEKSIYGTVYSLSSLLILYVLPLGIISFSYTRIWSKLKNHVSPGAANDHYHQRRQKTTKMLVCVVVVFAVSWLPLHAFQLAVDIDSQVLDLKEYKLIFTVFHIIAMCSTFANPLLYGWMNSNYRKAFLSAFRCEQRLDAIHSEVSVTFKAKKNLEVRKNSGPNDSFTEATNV

Vero = experiment: host cell cytotoxicity of antiviral hits, dose response, cytotoxicity control for West Nile virus antiviral project, secondary assay (AID 1650); format: functional; conditions: Chlorocebus sabaeus
Genome polyprotein = Genome polyprotein (dengue virus type 2, UniProt P29990); experiment: Dengue-2 NS5 methyltransferase inhibitors, primary screen, biochemical, confirmation dose response (AID 588689); format: functional
Fatty acid synthase [4] = molecular target: T3, Fatty acid synthase (Homo sapiens, UniProt P49327); experiment: FAS thioesterase domain inhibitors, dose response, biochemical, endpoint fluorescence intensity, uHTS hits (AID 624327); format: functional;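 further: fluorescence from hydrolysis of an O-methyl fluorescein acyl ester substrate by the enzyme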
Prothrombin = Prothrombin (Homo sapiens, UniProt P00734); experiment: Thrombin 1536 HTS Dose Response Confirmation. [Related pubchem assays: 1046 (Thrombin 1536 HTS; hits were confirmed in this assay)]; format: functional
Fatty acid synthase [5] = molecular target: T3, Fatty acid synthase; experiment: FAS thioesterase domain inhibitors, dose response, biochemical, kinetic fluorescence intensity (AID 624326); format: functional;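 further: rate of fluorescence rise from hydrolysis of a fluorogenic O-methyl fluorescein ester substrate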
[6] = P. falciparum Dd2 growth inhibitors, dose response, SYBR Green, dry powder samples, set 9 (AID 1159568); format: functional, cell-based
[7] = P. falciparum Dd2 growth inhibitors, dose response, SYBR Green, cherry-picked samples (AID 1159567); format: functional, cell-based
[8] = P. falciparum Dd2 growth inhibitors, dose response, SYBR Green, dry powder samples (AID 1159566); format: functional, cell-based;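 further: potency for growth inhibition with lower SYBR green DNA signal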
[9] = P. falciparum ATP4 D1247Y mutant growth inhibitors, dose response, NITD609-resistant line, SYBR Green, dry powder (AID 1159571); format: functional, cell-based;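 further: parasites synchronized at ring stage by sorbitol before testing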
[10] = P. falciparum 3D7-ScDHODH growth inhibitors, dose response, SYBR Green, dry powder samples (AID 1159570); format: functional, cell-based;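 further: parasite growth measured after 72 hours of compound exposure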
Paired box protein Pax-8 = Paired box protein Pax-8 (Homo sapiens, UniProt Q06710); experiment: inhibitors of PAX8-driven TPO luciferase reporter, dose response, RMG-I cells, cherry-pick (AID 687027); format: functional, cell-based;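 further: luciferase reporter driven by Pax8 target thyroperoxidase promoter measured by SteadyGlo luminescence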
[11] = NIH:OVCAR-3 ovarian cancer cell cytotoxicity, dose response, PAX8 inhibitor project, plate reader, dry powder samples (AID 743044); format: functional, cell-based
Estrogen receptor beta [12] = molecular target: T4, Estrogen receptor beta (Homo sapiens, UniProt Q92731); experiment: ERβ–SRC-3 coactivator interaction inhibitors, confirmation, orthogonal assay, biochemical, ELISA, streptavidin-HRP readout (AID 1060)
Estrogen receptor beta [13] = molecular target: T4, Estrogen receptor beta
Protein RecA = molecular target: T5, Protein RecA (Mycobacterium tuberculosis, UniProt P9WHJ3); experiment: Fluorescence Cell-Free Homogeneous Dose Retest to Identify Inhibitors of RecA-Intein Splicing Activity. [Related pubchem assays (depositor defined):AID2097, AID2223, AID489010, AID492950]; format: functional
T5 sequence (P9WHJ3 whole entry): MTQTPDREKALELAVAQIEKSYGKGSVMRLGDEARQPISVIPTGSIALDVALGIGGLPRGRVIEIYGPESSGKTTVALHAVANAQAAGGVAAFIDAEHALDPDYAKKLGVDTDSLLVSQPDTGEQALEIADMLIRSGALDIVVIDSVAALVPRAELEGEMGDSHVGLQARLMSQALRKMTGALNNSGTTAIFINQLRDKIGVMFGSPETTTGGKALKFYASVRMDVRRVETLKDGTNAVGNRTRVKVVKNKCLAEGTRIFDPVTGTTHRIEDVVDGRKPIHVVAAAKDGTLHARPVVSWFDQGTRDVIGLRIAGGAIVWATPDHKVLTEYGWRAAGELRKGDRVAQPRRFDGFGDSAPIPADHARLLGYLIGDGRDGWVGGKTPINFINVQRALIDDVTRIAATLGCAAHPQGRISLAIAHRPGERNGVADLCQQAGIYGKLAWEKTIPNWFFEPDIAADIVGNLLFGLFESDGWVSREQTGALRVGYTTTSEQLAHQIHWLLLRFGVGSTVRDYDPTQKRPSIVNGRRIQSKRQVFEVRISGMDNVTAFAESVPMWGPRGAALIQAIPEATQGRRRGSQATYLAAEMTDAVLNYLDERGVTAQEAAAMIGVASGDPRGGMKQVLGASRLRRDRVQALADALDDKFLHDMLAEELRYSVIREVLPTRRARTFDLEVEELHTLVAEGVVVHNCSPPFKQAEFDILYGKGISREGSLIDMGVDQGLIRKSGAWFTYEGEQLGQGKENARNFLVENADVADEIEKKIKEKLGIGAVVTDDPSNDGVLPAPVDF

[14] = molecular target: T6, Replicative DNA helicase DnaB (Mycobacterium tuberculosis, UniProt P9WMR3); experiment: DnaB intein splicing inhibitors, dose response, biochemical, cell-free fluorescence (AID 449749); format: functional
T6 sequence (P9WMR3 whole entry): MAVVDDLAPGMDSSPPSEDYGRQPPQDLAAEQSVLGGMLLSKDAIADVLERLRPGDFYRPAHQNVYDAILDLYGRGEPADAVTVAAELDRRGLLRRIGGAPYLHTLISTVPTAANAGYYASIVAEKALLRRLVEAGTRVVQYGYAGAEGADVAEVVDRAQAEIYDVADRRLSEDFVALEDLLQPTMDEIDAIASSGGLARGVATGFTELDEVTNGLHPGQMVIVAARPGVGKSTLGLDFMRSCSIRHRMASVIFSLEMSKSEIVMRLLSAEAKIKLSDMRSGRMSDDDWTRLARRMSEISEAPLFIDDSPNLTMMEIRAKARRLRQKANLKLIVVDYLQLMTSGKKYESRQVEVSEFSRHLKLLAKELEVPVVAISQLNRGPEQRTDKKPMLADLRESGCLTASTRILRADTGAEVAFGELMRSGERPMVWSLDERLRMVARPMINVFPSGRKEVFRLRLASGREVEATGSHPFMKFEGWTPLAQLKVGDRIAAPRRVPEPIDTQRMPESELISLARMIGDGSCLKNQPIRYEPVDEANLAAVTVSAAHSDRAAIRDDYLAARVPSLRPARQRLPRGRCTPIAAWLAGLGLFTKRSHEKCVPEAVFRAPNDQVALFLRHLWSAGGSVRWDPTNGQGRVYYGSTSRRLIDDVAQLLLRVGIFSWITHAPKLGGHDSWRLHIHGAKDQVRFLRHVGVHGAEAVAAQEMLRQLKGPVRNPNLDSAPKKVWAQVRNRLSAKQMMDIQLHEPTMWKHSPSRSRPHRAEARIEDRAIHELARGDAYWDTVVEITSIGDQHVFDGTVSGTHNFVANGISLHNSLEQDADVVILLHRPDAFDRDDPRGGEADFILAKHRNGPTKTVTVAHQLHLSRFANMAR

Kallikrein-7 = Kallikrein-7 (Homo sapiens, UniProt P49862); experiment: Fluorescence Intensity-based biochemical primary high throughput dose response assay to identify activators of kallikrein-7 (K7) zymogen.
[15] = A cytotoxicity screen of small molecule inhibitors of the PhoP region in Salmonella typhi identified in the primary screen. [Related pubchem assays: 1850, 1864, 1985 ]; format: functional
[16] = molecular target: T7, Heat shock factor protein 1 (Mus musculus, UniProt P38532); experiment: inhibition of MG132-induced HSE-luciferase signal, confirmation, cell-based, NIH3T3, luminescence, dose retest (AID 2382); format: functional;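 further: NIH3T3 fibroblasts with HSF1-driven luciferase reporter stressed by proteasome inhibitor MG132; luminescence from HSF1-driven luciferase expression after 8 hours of MG132 stress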
T7 sequence (P38532 whole entry): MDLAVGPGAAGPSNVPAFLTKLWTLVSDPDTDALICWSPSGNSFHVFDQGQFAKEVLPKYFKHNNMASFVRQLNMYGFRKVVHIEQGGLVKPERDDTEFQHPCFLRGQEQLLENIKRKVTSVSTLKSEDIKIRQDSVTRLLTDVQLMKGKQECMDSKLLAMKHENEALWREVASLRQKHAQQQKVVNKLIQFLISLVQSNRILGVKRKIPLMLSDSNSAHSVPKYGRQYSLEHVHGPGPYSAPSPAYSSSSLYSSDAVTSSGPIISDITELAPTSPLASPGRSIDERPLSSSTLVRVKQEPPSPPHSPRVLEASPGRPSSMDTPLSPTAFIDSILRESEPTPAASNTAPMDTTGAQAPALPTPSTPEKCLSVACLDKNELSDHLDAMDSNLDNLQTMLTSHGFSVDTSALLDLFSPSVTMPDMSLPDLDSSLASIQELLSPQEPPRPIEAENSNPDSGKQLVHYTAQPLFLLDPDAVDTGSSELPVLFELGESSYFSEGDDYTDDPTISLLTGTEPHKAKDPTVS

[17] = molecular target: Eukaryotic translation initiation factor 4E (Mus musculus, UniProt P63073); experiment: eIF4E–eIF4G protein interaction inhibitors, dose response, biochemical, TR-FRET (AID 855); format: functional;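 further: potency for disrupting eIF4E binding to eIF4GI seen as loss of FRET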
Cytochrome P450 2C9 = Cytochrome P450 2C9 (Homo sapiens, UniProt P11712)
Cytochrome P450 2C9, sequence (P11712 whole entry): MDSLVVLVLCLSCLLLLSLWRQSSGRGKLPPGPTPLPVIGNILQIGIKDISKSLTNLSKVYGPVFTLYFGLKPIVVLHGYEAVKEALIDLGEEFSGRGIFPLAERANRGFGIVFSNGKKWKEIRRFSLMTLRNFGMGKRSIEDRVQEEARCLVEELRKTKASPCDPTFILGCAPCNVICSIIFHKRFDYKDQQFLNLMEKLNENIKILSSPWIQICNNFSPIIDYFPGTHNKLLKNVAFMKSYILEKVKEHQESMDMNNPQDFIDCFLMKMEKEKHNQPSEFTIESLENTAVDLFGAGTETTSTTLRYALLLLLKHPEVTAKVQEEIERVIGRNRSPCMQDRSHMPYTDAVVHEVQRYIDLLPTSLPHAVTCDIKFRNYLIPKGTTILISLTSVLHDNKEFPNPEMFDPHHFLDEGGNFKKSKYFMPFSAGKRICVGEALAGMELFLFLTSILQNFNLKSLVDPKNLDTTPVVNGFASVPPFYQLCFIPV

T4 sequence (Q92731 whole entry): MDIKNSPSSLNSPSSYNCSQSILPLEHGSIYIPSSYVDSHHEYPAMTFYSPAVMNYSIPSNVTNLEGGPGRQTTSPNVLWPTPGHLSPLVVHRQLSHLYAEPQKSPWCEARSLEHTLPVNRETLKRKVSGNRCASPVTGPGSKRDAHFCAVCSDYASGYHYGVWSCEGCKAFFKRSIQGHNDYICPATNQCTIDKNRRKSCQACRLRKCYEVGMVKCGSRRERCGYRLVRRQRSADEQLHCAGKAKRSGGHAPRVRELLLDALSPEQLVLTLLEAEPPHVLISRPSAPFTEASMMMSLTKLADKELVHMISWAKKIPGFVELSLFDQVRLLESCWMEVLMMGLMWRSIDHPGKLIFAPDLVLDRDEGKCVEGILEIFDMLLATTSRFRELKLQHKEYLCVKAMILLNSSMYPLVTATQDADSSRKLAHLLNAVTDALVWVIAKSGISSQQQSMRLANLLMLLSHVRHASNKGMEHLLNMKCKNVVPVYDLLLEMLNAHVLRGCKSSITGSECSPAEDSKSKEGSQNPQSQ
T3 sequence (P49327 whole entry, the tested form may be a part): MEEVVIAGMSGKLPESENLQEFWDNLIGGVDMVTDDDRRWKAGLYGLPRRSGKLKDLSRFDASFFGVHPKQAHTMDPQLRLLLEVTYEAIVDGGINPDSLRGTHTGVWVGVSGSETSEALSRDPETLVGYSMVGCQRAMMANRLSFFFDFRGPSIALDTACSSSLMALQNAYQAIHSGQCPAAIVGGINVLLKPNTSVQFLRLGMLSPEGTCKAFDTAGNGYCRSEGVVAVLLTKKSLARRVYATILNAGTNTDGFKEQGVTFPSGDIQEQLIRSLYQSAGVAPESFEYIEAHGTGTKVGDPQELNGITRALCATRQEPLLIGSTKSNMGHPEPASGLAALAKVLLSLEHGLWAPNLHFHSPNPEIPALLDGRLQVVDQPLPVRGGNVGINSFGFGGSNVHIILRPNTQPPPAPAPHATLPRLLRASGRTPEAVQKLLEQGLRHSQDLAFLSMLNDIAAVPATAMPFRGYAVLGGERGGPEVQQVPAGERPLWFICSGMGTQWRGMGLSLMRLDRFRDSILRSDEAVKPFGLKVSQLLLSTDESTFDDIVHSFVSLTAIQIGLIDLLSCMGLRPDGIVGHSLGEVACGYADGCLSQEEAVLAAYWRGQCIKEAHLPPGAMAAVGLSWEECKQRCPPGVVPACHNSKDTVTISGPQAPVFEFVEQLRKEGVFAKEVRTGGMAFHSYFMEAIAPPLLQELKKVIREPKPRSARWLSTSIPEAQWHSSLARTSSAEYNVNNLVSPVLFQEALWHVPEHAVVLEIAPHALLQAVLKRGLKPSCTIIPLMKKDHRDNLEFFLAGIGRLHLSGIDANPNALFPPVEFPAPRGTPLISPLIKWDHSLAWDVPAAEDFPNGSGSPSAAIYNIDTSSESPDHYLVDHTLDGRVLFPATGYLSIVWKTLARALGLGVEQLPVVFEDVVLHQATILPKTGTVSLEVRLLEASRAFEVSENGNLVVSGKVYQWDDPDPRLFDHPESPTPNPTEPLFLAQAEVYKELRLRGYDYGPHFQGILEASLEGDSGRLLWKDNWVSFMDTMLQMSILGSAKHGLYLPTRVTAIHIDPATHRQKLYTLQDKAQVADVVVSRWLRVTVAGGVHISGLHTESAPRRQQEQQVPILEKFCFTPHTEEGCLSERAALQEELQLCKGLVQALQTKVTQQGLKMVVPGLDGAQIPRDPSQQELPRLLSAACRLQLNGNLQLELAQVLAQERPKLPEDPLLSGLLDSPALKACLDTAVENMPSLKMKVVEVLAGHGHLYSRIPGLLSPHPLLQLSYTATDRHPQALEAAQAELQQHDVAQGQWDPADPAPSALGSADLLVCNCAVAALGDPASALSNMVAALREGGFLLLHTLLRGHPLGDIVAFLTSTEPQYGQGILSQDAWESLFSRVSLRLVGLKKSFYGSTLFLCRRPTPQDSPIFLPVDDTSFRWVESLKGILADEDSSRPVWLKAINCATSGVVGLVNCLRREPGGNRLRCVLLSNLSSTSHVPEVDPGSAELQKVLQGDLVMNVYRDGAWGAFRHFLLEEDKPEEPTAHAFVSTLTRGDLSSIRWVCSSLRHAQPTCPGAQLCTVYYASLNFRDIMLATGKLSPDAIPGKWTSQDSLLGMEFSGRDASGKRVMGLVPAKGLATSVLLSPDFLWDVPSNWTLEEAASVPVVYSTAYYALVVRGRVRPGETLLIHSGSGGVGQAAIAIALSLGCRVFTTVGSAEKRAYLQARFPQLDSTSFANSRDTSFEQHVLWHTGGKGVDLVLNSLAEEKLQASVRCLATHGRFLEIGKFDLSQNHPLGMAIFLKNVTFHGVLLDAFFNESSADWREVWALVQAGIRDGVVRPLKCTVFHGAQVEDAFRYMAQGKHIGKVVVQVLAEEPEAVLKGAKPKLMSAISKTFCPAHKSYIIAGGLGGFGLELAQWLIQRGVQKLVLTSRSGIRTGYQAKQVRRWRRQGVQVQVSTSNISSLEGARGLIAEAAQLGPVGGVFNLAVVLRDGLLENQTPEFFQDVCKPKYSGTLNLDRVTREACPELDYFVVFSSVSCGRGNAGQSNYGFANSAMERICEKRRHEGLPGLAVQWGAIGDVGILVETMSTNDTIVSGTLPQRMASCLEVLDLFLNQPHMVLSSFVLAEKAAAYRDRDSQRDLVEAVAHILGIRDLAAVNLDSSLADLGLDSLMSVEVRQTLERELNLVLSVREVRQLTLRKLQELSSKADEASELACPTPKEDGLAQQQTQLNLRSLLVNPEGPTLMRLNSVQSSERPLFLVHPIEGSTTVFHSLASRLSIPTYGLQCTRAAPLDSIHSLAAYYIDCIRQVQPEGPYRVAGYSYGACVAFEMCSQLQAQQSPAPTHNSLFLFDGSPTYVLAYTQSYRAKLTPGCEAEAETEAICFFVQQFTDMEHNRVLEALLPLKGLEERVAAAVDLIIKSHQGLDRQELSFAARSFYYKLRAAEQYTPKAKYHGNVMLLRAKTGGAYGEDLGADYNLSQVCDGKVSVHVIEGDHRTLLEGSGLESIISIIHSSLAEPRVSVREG
Eukaryotic translation initiation factor 4E, sequence (P63073 whole entry): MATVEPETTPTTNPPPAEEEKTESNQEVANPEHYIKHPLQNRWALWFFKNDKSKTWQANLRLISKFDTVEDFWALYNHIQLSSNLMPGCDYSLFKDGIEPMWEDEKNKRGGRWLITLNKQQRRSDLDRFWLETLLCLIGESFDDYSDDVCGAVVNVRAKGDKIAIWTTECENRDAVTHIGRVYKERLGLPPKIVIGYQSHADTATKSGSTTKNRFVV
Paired box protein Pax-8, sequence (Q06710 whole entry): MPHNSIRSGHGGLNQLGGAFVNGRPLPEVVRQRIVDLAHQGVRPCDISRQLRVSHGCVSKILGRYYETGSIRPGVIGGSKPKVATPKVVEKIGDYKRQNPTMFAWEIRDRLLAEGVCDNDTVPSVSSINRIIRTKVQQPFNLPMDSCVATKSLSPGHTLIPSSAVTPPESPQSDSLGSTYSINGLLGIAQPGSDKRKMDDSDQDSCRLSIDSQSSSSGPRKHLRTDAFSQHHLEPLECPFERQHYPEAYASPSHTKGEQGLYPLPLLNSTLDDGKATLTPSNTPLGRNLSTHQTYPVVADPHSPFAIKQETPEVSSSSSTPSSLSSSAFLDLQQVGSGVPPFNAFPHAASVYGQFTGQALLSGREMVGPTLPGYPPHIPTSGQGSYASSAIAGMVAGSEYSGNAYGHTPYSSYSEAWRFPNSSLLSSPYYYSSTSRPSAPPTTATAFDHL
Genome polyprotein, sequence (P29990 2492-3391 limits assumed): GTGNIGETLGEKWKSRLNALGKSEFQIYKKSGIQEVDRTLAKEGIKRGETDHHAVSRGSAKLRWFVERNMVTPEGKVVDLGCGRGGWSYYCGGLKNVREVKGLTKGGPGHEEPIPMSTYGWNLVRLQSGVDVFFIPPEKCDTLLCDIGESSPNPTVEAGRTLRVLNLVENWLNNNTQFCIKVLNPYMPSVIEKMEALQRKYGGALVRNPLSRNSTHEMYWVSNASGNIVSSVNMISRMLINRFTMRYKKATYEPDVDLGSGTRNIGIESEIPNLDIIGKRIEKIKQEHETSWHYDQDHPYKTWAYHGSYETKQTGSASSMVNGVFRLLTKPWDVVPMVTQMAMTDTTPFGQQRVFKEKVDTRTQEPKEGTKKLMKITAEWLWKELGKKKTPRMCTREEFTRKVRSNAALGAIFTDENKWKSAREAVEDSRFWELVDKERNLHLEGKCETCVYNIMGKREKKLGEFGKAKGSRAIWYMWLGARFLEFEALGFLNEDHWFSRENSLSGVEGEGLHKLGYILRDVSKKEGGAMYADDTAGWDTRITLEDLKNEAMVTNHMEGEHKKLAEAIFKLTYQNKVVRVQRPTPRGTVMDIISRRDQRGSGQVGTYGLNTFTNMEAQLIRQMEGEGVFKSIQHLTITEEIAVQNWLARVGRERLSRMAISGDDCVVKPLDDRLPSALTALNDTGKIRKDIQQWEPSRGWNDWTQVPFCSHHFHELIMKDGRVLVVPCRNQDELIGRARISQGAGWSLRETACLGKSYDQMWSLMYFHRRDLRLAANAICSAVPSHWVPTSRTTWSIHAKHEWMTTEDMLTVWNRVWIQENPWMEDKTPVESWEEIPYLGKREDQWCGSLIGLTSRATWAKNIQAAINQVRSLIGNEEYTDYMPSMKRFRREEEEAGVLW

Cc1ccc(OCCCCN(C)Cc2ccccc2)c(Br)c1
AC50 [1]: 9.59 µM (active)
IC50 [2]: 8.33 µM (active)
IC50 [3]: 12 µM (not active)

O=C(CSCc1c(Cl)cccc1Cl)Nc1ccccc1-c1ccccc1
IC50 [2]: 5.69 µM (active)
IC50 [3]: 6.07 µM (active)

O=C1NC(Nc2nc3ccccc3s2)(C(F)(F)F)C(=O)N1C1CCCCC1 (stereo unspecified)
CC50 (Vero): 3.44 µM (active)

CCc1ccc(S(=O)(=O)ON2C(=O)c3ccccc3C2=O)cc1
IC50 (Genome polyprotein): > 100 µM (active)
IC50 (Fatty acid synthase [4]): 2.41 µM (active)
IC50 (Prothrombin): 1.55 µM (active)
IC50 (Fatty acid synthase [5]): 1.28 µM (active)

O=C(C[C@@H]1CC[C@@H]2[C@H](COC[C@@H](O)CN2C(=O)c2ccncc2)O1)Nc1ccc(-c2ccccc2)cc1
AC50 [6]: 15.3 µM (active)

C=CCOc1ccc(C(=O)C2=C(O)C(=O)N(CCCOC)C2c2ccncc2)cc1 (stereo unspecified)
IC50 (Prothrombin): > 50 µM (inconclusive)

COc1cccc(S(=O)(=O)N(C)C[C@@H]2Oc3ncc(C#Cc4ccc(OC)c(OC)c4)cc3C(=O)N([C@H](C)CO)C[C@@H]2C)c1
AC50 [7]: 1.23 µM (active)
AC50 [8]: 0.276 µM (active)
AC50 [9]: 0.428 µM (active)
AC50 [10]: 0.724 µM (active)

O=C(Nc1ccc(F)cc1)N[C@H]1CC[C@H](CCNC(=O)c2cc(Cl)cc(Cl)c2)O[C@H]1CO
AC50 (Paired box protein Pax-8): 8.97 µM (active)
AC50 [11]: 33 µM (active)

C1=C(N2CCOCC2)/C(=C/c2nc3ccccc3[nH]2)CC1
IC50 (Estrogen receptor beta [12]): > 109 µM (not active)
IC50 (Estrogen receptor beta [13]): 23.8 µM (active)

CC(=O)O[C@@H]1C[C@H]2C(C)(C)C(=O)C=C[C@]2(C)[C@H]2CC[C@@]3(C)[C@H](c4ccoc4)OC(=O)[C@H]4O[C@]43[C@@]21C [GEDUNIN]
EC50 (Protein RecA): 16.1 µM (active)
AC50 [14]: 4.57 µM (active)
CC50 (Vero): 22.2 µM (active)

O=C(O)CCC(=O)NN1C(=O)c2ccccc2NC1c1ccc(F)cc1 (stereo unspecified)
EC50 (Kallikrein-7): > 0.286 µM (active)

CCn1ncc(Br)c1C(=O)Nc1cc([N+](=O)[O-])ccc1C
IC50 (Prothrombin): > 50 µM (not active)

Clc1ccc(C2=Nn3c(nnc3-c3[nH]nc4c3CCC4)SC2)cc1Cl
IC50 [2]: 9.8 µM (active)
IC50 [3]: 8.69 µM (active)

CCOc1ccc2nc(NC(=O)CS(=O)(=O)c3ccc(C)cc3)sc2c1
IC50 [2]: > 12 µM (not active)
IC50 [3]: > 35 µM (not active)

COc1c(Br)cc2c(C)c(C(=O)N3CCOCC3)oc2c1Br
EC50 [15]: > 50 µM (active)

CCCCCCc1cc2cc(S(=O)(=O)c3ccc(F)c(Cl)c3)c(=O)oc2cc1O
EC50 [16]: 17.5 µM (active)
CC50 (Vero): 10.9 µM (active)

C/C=C/c1ccc([C@H]2[C@@H](CO)N(C(=O)Nc3ccccc3F)[C@H]2C#N)cc1
AC50 [6]: 13.7 µM (active)

Cc1ccc2c(Cl)cc(Cl)c(OCC(=O)NCc3ccco3)c2n1
IC50 [17]: 12.5 µM (active)
IC50 (Estrogen receptor beta [12]): > 50 µM (not active)
IC50 (Estrogen receptor beta [13]): < 1.56 µM (active)

Cc1ccc(/C=N/NC(=O)CSc2nc3ccccc3n2C)s1
AC50 (Cytochrome P450 2C9): inconclusive
EC50 [15]: > 50 µM (active)

COc1ccc2nc(NC(=O)Nc3ccccc3)sc2c1 [FRENTIZOLE]
EC50 [15]: > 50 µM (active)

CCCNC(=O)N1[C@H](C#N)[C@@H](c2ccccc2C2=CCCCC2)[C@@H]1CO
AC50 [6]: 4.33 µM (active)

O=C(O)c1ccccc1SCC(=O)N1CCOCC1
IC50 (Prothrombin): > 50 µM (not active)

Reference: ChEMBL document CHEMBL1201862, “PubChem BioAssay data set” (2004)
